From patent US20070054886A1, “Ras antagonists for treating neurodegenerative disorders” (RAMOT AT TEL AVIV UNIVERSITY, LTD., priority 2003, published 2007)

Columns and labels:
[1] = tested on: primary hippocampal and cortical neuronal cultures; format: cell-based, rat
Experimental: Hippocampal and cortical neuronal cultures were prepared from embryonic rat brain essentially as described by Mattson (Mattson P M, Barger S W, Begley J M and Mark R J, Methods Cell Biol 1995; 46: 187-216). Briefly, Sprague Dawley embryos (17-18 days of gestation) were removed and their brains were dissected under the hood and kept in cold in sterile HEPES buffered Hank's balanced salt solution (HBBS) lacking Ca^2+ and Mg^2+, containing 10 μg/ml gentamicin sulfate. The brain regions under study were dissected and cells were dissociated by mild 0.25% trypsin, counted and the dissociation buffer was replaced by culture medium as detailed in Mattson. The cells were plated on poly-L-lysine ([…] solution) coated 24 well plates in Neurobasal medium (Gibco, Grand Island, N.Y. # 2110 3-049) prepared as detailed in Mattson. Hippocampal or cortical cells were plated at a density of 5×10^5 cells per well in 24 well plates and grown in 1 ml medium. Cultures were a kept in humidified 95%, 5% air/CO2 incubator at 37 C for 7 days and then used for the experiments.
Cells were treated with 25 μM FTS either 24 h prior to glutamate (200 μM) treatment or immediately after glutamate treatment. Assays were performed in triplicates. Twenty-four hours after the glutamate treatment, the cells were subjected to viability-cytotoxicity assay using the Live/Dead reagent kit (L-7013, Molecular Probes) essentially as described by the manufacturer. Fluorescent images for live cells (Syto 10, green) and of dead cells (DEAD red) were collected with appropriate filters within 1 h of staining. The number of live cells was estimated by counting the green-labeled cells in 3 fields in each well. The number of live cells in each of the triplicate experimental samples was averaged. These values were used to estimate the percent of cell death comparing the glutamate treated cells (with or without FTS) to untreated controls. The read labeled dead cells could not be used for accurate estimation of cell death under the conditions used because unsynchronized cell-death leads to disintegration of dead cells resulting in inaccurate estimation of the number of dead cells.
In the typical experiments, either hippocampal or cortical neuronal culture was exposed to 25 μM FTS 24 h prior to the addition of glutamate. […] The cells were then exposed to 200 μM glutamate for 30 min. The medium was replaced by glutamate-free medium and 24 h later the cells were subjected to the Live/Dead assay. […] This level of cell death was used as a reference point in all experiments.

NMDA receptors (NMDAR) = assay: NMDAR quantitative autoradiography ([3H]MK-801 binding) in brain sections of CHI mice; format: in vivo, mouse; settings: seven days after CHI, FTS 5 mg/kg 1 hr after CHI
Experimental: (§1) Seven days after CHI, vehicle-treated (n=5) and FTS-treated (n=4) mice were decapitated and their brains were removed (within 1 minute), frozen in powdered dry ice, and kept at −70° C. until used. Consecutive 20-μ cryostat sections of the whole forebrain were cut in the coronal plane, and one in every ten sections (i.e. at intervals of 200μ) was thaw-mounted onto coated microscope glass slides.
NMDAR autoradiography was performed as described (Bowery et al., 1988), with some modifications. […] At the end of incubation, the sections were dipped for 5 seconds in ice-cold buffer, washed for 90 minutes in cold fresh buffer, and then dipped in ice-cold distilled water. The dried tissue sections were exposed to tritium-sensitive film accompanied by commercial calibrated tritium standard scales (Amersham). After exposure for 36 days, the films were developed in Kodak D-19, fixed, and dried. The sections were then stained with cresyl violet for anatomical region placement according to a mouse brain atlas (Paxinos and Franklin, 1997) and for identification of lesions.
(§2) The films were scanned and digitized using PhotoShop and a large bed Umax scanner, and saved in tiff format for accessibility to NIH image software. Using NIH Image routines, the standard curve was measured and used to calibrate regional brain measurements. Morphometry routines were used to measure the lesion area on each section where it was visible. The volume was calculated by multiplying the summed lesion areas by the distance between sections (0.2 mm).

[2] = tested on: rats subjected to closed head injury (CHI); assay: Neuroprotection, rat CHI model (NSS); format: in vivo
Experimental: Sabra (strain of the Hebrew University) rats (200-220 gr) were used. A weight (200 g) was dropped on the cone fixed on the exposed skull at the site (frontal left cortex) designated for injury (from a height of 20 cm), resulting in a focal injury. A maximal Neurological Severity Score (NSS) of 17 indicates severe neurological dysfunction, with failure of all tasks, whereas a score of zero is achieved by healthy uninjured animals. The NSS at 1 h after trauma reflects the initial severity of injury and is inversely correlated with neurological outcome. […] To assess the effect of FTS on neurological recovery, rats were randomly assigned to either vehicle or FTS treatment, given immediately after the initial NSS evaluation (at 1 hr after CHI). These assessments were performed by an observer blinded to the kind of treatment the animals have received. The extent of recovery (ΔNSS) was calculated as the difference between NSS at 1 hr and that at any later time point: ΔNSS (at time t)=NSS (1 h)−NSS (t).
Thus, the greater ΔNSS reflects greater recovery, and this parameter serves as a tool for evaluation of drug effects.

[3] = cited from earlier work
[4] = tested on: mice subjected to closed head injury (CHI); assay: Lesion volume after CHI in mice; format: in vivo, mouse; settings: day 7 after CHI
Experimental: as §1, §2

[5] = 25 μM FTS 24 h prior to 200 μM glutamate for 30 min, Live/Dead assay 24 h later
[6] = left (ipsilateral) hemisphere, mean ± SD, 4 mice
[7] = right (contra-lateral) hemisphere, mean ± SD, 4 mice
[8] = FTS 5 mg/kg bw ip 1 h after CHI, mean ± SD of 7 rats

Q: With CC(C)=CCC/C(C)=C/CC/C(C)=C/CSc1ccccc1C(=O)O [FTS, farnesyl-thiosalicylic acid] as the molecule, how does the “toxic effects of FTS alone on cultured hippocampal or cortical neurons” value [1] read?
A: Its value is “no toxic effects”.

Q: And the “toxic effect of glutamate in cortical cultures” value [1, 5]?
A: Its value is “reduced the toxic effect of glutamate”.

Q: What about the “toxic effect of glutamate in hippocampal cultures” value [1, 5] of the same molecule?
A: The value was “markedly reduced”.

Q: And the “neuroprotective effect against the glutamate toxicity” value ([1]; hippocampal and cortical cultures, 25 μM FTS 24 h prior to 200 μM glutamate)?
A: Its value is 70%.

Q: And the “percent cell death relative to glutamate treated cells (100% cell death)” value ([1]; hippocampal and cortical cultures, 25 μM FTS 24 h prior to 200 μM glutamate, FIG. 10)?
A: The value was 30%.

Q: And the “effect of trauma on the binding of [3H]-MK-801 to the NMDA receptors” value (NMDA receptors (NMDAR); ANOVA, no significant difference between sides (P=0.5))?
A: Its value is “completely reversed”.

Q: What about the “NMDA-receptor density, dorsal striatum, left” value (NMDA receptors (NMDAR); [6]) of the same molecule?
A: The value was 4.32 ± 0.32 nCi of [^3H]-MK-801 specifically bound/mg.

Q: And the “NMDA-receptor density, frontal motor cortex, left” value (NMDA receptors (NMDAR); [6])?
A: Its value is 6.32 ± 2.12 nCi of [^3H]-MK-801 specifically bound/mg.

Q: And the “NMDA-receptor density, hippocampus CA1, left” value (NMDA receptors (NMDAR); [6])?
A: The value was 9.85 ± 1.34 nCi of [^3H]-MK-801 specifically bound/mg.

Q: And the “NMDA-receptor density, hippocampus CA3, left” value (NMDA receptors (NMDAR); [6])?
A: Its value is 7.69 ± 0.96 nCi of [^3H]-MK-801 specifically bound/mg.

Q: And the “NMDA-receptor density, parietal cortex, left” value (NMDA receptors (NMDAR); [6])?
A: Its value is 5.69 ± 1.18 nCi of [^3H]-MK-801 specifically bound/mg.

Q: What about the “NMDA-receptor density, perirhinal cortex, left” value (NMDA receptors (NMDAR); [6]) of the same molecule?
A: Its value is 5.92 ± 0.72 nCi of [^3H]-MK-801 specifically bound/mg.

Q: What about the “NMDA-receptor density, piriform cortex, left” value (NMDA receptors (NMDAR); [6]) of the same molecule?
A: The value was 5.65 ± 1.54 nCi of [^3H]-MK-801 specifically bound/mg.

Q: What about the “NMDA-receptor density, ventral striatum, left” value (NMDA receptors (NMDAR); [6]) of the same molecule?
A: The value was 4.06 ± 1.82 nCi of [^3H]-MK-801 specifically bound/mg.

Q: And the “NMDA-receptor density, dorsal striatum, right” value (NMDA receptors (NMDAR); [7])?
A: The value was 5.45 ± 1.72 nCi of [^3H]-MK-801 specifically bound/mg.

Q: And the “NMDA-receptor density, frontal motor cortex, right” value (NMDA receptors (NMDAR); [7])?
A: The value was 6.63 ± 1.7 nCi of [^3H]-MK-801 specifically bound/mg.

Q: And the “NMDA-receptor density, hippocampus CA1, right” value (NMDA receptors (NMDAR); [7])?
A: The value was 9.25 ± 0.32 nCi of [^3H]-MK-801 specifically bound/mg.

Q: What about the “NMDA-receptor density, hippocampus CA3, right” value (NMDA receptors (NMDAR); [7]) of the same molecule?
A: Its value is 7.23 ± 0.42 nCi of [^3H]-MK-801 specifically bound/mg.

Q: What about the “NMDA-receptor density, parietal cortex, right” value (NMDA receptors (NMDAR); [7]) of the same molecule?
A: Its value is 7.04 ± 1.46 nCi of [^3H]-MK-801 specifically bound/mg.

Q: And the “NMDA-receptor density, perirhinal cortex, right” value (NMDA receptors (NMDAR); [7])?
A: Its value is 5.97 ± 0.88 nCi of [^3H]-MK-801 specifically bound/mg.

Q: What about the “NMDA-receptor density, piriform cortex, right” value (NMDA receptors (NMDAR); [7]) of the same molecule?
A: The value was 5.57 ± 0.84 nCi of [^3H]-MK-801 specifically bound/mg.

Q: And the “NMDA-receptor density, ventral striatum, right” value (NMDA receptors (NMDAR); [7])?
A: Its value is 5.21 ± 0.54 nCi of [^3H]-MK-801 specifically bound/mg.

Q: What about the “Neurological Severity Score (NSS) 1 h” value ([2]; 1 h after CHI, before treatment (baseline), maximal score 17, mean ± SD of 7 rats) of the same molecule?
A: Its value is 9.71 ± 1.97.

Q: And the “ΔNSS = NSS (1 h) − NSS (time), 24 h” value [2, 8]?
A: Its value is 1.86 ± 1.34.

Q: And the “ΔNSS = NSS (1 h) − NSS (time), 3 d” value [2, 8]?
A: The value was 3.00 ± 1.29.

Q: And the “ΔNSS = NSS (1 h) − NSS (time), 7 d” value ([2]; FTS 5 mg/kg bw ip 1 h after CHI, mean ± SD of 7 rats, p = 0.019 vs control)?
A: The value was 5.14 ± 1.07.

Q: What about the “side effects at the 5 mg/kg dose in animal models of neoplasticity” value ([3]; 5 mg/kg FTS, previous studies (Jansen et al., 1999; Kloog et al., 1999)) of the same molecule?
A: The value was “without inadvertent side effects”.

Q: And the “toxicity and adverse side effects in animals” value ([3]; Kloog et al., 1999)?
A: Its value is “not to be toxic and have no adverse side effects”.

Q: What about the mean lesion volume ([4]; FTS 5 mg/kg 1 hr after CHI, mean±SD of 4 animals, control 155±41 μL, p<0.07) of the same molecule?
A: The mean lesion volume was 87 ± 53 µL.

Q: What about the “reduction in lesion volume (lesion size)” value ([4]; FTS 5 mg/kg vs vehicle, trend, p<0.07) of the same molecule?
A: Its value is 50%.

Q: What about the “lesion volume, range” value ([4]; FTS 5 mg/kg, 4 animals) of the same molecule?
A: Its value is 37 to 161 µL.
